Measurements from ChEMBL document CHEMBL1146863, “1,4-Dihydroindeno[1,2-c]pyrazoles as novel multitargeted receptor tyrosine kinase inhibitors” (Bioorg Med Chem Lett, 2006).

Key:
[1] = biological target: Vascular endothelial growth factor receptor 1 (Homo sapiens, UniProt P17948)
[2] = biological target: Mast/stem cell growth factor receptor Kit (Homo sapiens, UniProt P10721)
[3] = biological target: Vascular endothelial growth factor receptor 2 (Homo sapiens, UniProt P35968)
Cytochrome P450 3A4 = Cytochrome P450 3A4 (Homo sapiens, UniProt P08684); assay: Inhibition of CYP3A4 in human liver microsome; assay type: ADME
Angiopoietin-1 receptor = Angiopoietin-1 receptor (Homo sapiens, UniProt Q02763); assay: Inhibition of Tie2 at 1 mM ATP by HTRF assay

Sequence of Mast/stem cell growth factor receptor Kit (P10721 whole entry): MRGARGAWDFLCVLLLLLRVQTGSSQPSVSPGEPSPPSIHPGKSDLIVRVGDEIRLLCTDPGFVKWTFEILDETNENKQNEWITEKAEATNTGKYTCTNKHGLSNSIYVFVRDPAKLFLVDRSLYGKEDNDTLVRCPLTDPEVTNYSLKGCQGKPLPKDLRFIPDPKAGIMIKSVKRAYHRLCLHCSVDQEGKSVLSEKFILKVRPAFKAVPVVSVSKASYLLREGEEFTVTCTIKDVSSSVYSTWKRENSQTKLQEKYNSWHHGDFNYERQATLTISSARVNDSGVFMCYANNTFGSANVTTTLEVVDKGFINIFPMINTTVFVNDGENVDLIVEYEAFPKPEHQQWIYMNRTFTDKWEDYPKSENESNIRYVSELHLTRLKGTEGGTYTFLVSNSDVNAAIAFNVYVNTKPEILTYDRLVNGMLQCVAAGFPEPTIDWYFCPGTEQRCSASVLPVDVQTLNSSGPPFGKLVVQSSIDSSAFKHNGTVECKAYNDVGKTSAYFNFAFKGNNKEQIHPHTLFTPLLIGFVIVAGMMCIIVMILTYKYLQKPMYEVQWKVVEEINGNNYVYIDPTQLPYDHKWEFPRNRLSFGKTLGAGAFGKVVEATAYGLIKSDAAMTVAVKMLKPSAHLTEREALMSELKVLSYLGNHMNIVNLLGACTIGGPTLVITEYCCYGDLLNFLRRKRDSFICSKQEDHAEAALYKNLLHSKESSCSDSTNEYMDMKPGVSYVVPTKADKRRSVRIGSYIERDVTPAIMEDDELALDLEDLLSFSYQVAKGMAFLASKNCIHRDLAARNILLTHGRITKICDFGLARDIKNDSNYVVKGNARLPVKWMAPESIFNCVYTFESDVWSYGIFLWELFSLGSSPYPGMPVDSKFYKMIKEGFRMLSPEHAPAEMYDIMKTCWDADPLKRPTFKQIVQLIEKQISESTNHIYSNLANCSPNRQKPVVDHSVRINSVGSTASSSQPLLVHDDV
Sequence of Vascular endothelial growth factor receptor 2 (P35968 whole entry): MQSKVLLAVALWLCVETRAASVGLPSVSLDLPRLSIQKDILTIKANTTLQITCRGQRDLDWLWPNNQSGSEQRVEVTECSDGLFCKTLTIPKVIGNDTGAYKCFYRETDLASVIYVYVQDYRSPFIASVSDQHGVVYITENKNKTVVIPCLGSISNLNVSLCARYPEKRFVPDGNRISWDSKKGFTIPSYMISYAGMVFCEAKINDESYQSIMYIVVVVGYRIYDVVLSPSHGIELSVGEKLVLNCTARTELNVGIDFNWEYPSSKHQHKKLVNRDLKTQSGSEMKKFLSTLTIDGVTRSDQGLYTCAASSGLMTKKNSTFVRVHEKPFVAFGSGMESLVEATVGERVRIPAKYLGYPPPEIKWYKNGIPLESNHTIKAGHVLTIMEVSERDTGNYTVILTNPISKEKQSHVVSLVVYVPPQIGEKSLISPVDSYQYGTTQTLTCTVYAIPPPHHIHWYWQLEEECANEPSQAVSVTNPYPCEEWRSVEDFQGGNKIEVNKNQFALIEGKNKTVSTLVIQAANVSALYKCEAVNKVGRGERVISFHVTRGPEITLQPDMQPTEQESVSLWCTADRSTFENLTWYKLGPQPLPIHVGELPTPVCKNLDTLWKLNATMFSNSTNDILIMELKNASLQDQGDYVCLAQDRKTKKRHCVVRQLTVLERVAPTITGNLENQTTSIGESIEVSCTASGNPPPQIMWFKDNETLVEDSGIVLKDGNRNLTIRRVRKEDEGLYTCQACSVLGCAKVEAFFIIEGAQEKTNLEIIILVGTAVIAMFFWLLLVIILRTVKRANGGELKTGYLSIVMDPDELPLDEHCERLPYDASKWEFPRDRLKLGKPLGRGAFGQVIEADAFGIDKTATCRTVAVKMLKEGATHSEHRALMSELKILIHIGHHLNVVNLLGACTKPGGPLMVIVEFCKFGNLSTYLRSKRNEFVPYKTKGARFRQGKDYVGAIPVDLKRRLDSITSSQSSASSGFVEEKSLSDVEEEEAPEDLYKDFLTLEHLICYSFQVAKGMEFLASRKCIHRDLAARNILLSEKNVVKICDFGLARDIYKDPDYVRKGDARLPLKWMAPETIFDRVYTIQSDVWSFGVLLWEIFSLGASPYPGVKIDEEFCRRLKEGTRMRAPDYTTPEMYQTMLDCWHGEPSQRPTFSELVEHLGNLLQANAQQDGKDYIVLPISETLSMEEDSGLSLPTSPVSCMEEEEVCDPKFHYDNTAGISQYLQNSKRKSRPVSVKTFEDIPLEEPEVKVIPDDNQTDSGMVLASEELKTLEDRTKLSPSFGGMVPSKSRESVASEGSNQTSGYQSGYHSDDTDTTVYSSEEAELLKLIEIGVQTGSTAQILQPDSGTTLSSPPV
Sequence of Vascular endothelial growth factor receptor 1 (P17948 whole entry): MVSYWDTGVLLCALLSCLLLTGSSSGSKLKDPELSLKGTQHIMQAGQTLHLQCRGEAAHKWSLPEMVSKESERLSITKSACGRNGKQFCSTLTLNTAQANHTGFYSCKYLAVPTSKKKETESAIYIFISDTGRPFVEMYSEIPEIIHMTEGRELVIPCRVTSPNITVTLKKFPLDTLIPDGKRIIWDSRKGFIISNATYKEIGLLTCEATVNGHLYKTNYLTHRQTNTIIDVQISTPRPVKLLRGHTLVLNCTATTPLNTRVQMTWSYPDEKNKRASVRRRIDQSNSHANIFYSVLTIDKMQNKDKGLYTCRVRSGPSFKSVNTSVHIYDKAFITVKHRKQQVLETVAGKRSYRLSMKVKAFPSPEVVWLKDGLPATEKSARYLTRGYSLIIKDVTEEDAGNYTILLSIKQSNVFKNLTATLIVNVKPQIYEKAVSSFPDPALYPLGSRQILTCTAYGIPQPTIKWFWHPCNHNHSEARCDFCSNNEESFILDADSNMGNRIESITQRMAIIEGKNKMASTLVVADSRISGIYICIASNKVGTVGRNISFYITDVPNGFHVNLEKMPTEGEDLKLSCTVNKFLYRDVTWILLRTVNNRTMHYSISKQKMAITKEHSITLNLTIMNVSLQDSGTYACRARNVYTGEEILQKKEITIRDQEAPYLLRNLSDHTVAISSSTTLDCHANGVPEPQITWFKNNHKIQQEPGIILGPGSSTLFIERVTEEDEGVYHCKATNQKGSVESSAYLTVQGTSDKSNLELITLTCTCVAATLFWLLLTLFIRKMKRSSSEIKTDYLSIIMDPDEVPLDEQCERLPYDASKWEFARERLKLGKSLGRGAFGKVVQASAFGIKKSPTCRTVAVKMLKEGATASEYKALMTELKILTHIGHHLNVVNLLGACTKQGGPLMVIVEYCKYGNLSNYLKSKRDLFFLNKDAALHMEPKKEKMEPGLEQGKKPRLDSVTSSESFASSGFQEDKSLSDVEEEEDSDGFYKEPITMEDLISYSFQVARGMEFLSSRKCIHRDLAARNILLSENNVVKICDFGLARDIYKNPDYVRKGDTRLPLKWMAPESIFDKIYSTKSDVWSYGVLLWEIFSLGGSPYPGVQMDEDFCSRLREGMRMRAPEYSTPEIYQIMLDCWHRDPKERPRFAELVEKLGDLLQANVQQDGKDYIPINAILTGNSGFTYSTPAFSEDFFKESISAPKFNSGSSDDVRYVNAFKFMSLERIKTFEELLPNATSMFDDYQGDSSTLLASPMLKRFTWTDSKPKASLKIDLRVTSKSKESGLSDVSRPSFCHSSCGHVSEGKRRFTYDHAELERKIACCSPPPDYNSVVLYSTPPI
Sequence of Cytochrome P450 3A4 (P08684 whole entry): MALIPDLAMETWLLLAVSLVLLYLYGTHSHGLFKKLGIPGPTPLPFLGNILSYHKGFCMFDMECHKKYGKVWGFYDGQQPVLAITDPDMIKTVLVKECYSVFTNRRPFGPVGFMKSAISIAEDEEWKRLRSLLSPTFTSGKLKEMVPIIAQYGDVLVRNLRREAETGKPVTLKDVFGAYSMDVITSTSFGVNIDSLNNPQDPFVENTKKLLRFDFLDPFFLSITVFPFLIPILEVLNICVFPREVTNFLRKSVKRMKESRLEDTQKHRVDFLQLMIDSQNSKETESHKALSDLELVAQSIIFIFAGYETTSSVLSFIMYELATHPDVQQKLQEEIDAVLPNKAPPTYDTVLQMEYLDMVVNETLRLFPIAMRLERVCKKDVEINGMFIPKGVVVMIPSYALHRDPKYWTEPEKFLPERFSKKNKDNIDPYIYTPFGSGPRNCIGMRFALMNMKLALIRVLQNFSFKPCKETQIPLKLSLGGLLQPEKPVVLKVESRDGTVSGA

| Structure (SMILES) | IC50 [1] [nM] | IC50 [2] [nM] | IC50 [3] [nM] | IC50 (Cytochrome P450 3A4) [nM] | IC50 (Angiopoietin-1 receptor) [nM] |
| --- | --- | --- | --- | --- | --- |
| CN1CCN(Cc2ccc3c(c2)Cc2c(-c4ccc(CNC(=O)Nc5ccccc5Cl)s4)n[nH]c2-3)CC1 | – | 921 | – | – | – |
| CN1CCN(Cc2ccc3c(c2)Cc2c-3n[nH]c2-c2ccc(CN(C)C(=O)Nc3ccccc3Cl)s2)CC1 | 3840 | > 50000 | – | – | – |
| Cc1cccc(NC(=O)N(Cc2ccc(-c3[nH]nc4c3Cc3cc(CN5CCN(C)CC5)ccc3-4)s2)CC(C)C)c1 | 1590 | 17200 | – | – | – |
| CN1CCN(Cc2ccc3c(c2)Cc2c-3n[nH]c2-c2csc(CNS(=O)(=O)Cc3ccccc3)c2)CC1 | – | – | > 50000 | – | – |
| c1cn(Cc2ccc3c(c2)-c2[nH]nc(-c4ccsc4)c2C3)cn1 | – | – | 147 | 254 | – |
| Cc1ccccc1NC(=O)NCc1ccc(-c2[nH]nc3c2Cc2ccc(CN4CCN(C)CC4)cc2-3)s1 | 2060 | 674 | – | – | – |
| Cc1cccc(N(C)C(=O)N(C)Cc2ccc(-c3[nH]nc4c3Cc3cc(CN5CCN(C)CC5)ccc3-4)s2)c1 | 27900 | 26800 | – | – | – |
| COCCN(Cc1ccc(-c2[nH]nc3c2Cc2cc(CN4CCN(C)CC4)ccc2-3)s1)C(=O)Nc1cccc(C)c1 | 2260 | > 50000 | – | – | – |
| CCN(Cc1ccc(-c2[nH]nc3c2Cc2cc(CN4CCN(C)CC4)ccc2-3)s1)C(=O)Nc1cccc(C)c1 | 131 | 2190 | – | – | – |
| CN1CCN(Cc2ccc3c(c2)-c2[nH]nc(-c4ccsc4)c2C3)CC1 | – | – | – | > 10000 | – |
| Cc1cccc(NC(=O)N(CCC(C)C)Cc2ccc(-c3[nH]nc4c3Cc3cc(CN5CCN(C)CC5)ccc3-4)s2)c1 | 3620 | 4840 | – | – | – |
| Cc1cccc(N/C(=N/Cc2ccc(-c3n[nH]c4c3Cc3cc(CN5CCN(C)CC5)ccc3-4)s2)NC#N)c1 | – | – | > 50000 | – | – |
| CN1CCN(Cc2ccc3c(c2)Cc2c-3n[nH]c2-c2ccc(CNC(=O)Nc3ccccc3C(F)(F)F)s2)CC1 | > 50000 | 23800 | – | – | – |
| Cc1cccc(NC(=O)N(C)Cc2ccc(-c3[nH]nc4c3Cc3cc(CN5CCN(C)CC5)ccc3-4)s2)c1 | 4720 | 14700 | – | – | – |
| Cc1cccc(NC(=O)N(Cc2ccc(-c3[nH]nc4c3Cc3cc(CN5CCN(C)CC5)ccc3-4)s2)C(C)C)c1 | 2820 | 9750 | – | – | – |
| Cc1ccccc1NC(=O)NCc1ccc(-c2[nH]nc3c2Cc2cc(CN4CCN(C)CC4)ccc2-3)s1 | 25000 | 1390 | – | – | – |
| Cc1ccc2nc(NCc3ccc(-c4[nH]nc5c4Cc4cc(CN6CCN(C)CC6)ccc4-5)s3)[nH]c2c1 | – | – | > 50000 | – | – |

Second part, the compound after the results:

| IC50 [1] [nM] | IC50 [2] [nM] | IC50 [3] [nM] | IC50 (Cytochrome P450 3A4) [nM] | IC50 (Angiopoietin-1 receptor) [nM] | Structure (SMILES) |
| --- | --- | --- | --- | --- | --- |
| 613 | 27 | – | – | – | Cc1ccc(NC(=O)NCc2ccc(-c3n[nH]c4c3Cc3ccc(CN5CCN(C)CC5)cc3-4)s2)cc1 |
| 1670 | 27 | – | – | – | Cc1cc(C)cc(NC(=O)NCc2ccc(-c3n[nH]c4c3Cc3cc(CN5CCN(C)CC5)ccc3-4)s2)c1 |
| 3780 | 101 | – | – | – | CN1CCN(Cc2ccc3c(c2)-c2[nH]nc(-c4ccc(CNC(=O)Nc5ccccc5)s4)c2C3)CC1 |
| 38 | 17 | – | – | – | CN1CCN(Cc2ccc3c(c2)-c2n[nH]c(-c4ccc(CN(C)C(=O)Nc5ccc(Br)cc5)s4)c2C3)CC1 |
| 4200 | 13 | – | – | – | CN1CCN(Cc2ccc3c(c2)Cc2c(-c4ccc(CNC(=O)Nc5ccc(C(F)(F)F)cc5)s4)n[nH]c2-3)CC1 |
| 25 | 19 | – | – | – | CN1CCN(Cc2ccc3c(c2)-c2n[nH]c(-c4ccc(CN(C)C(=O)Nc5ccc(OC(F)(F)F)cc5)s4)c2C3)CC1 |
| 863 | 17 | – | – | – | CN1CCN(Cc2ccc3c(c2)Cc2c-3n[nH]c2-c2ccc(CNC(=O)Nc3cccc(C(F)(F)F)c3)s2)CC1 |
| 2900 | 86 | – | – | – | Cc1cccc(NC(=O)NCc2ccc(-c3n[nH]c4c3Cc3cc(CN5CCN(C)CC5)ccc3-4)s2)c1 |
| 14 | 18 | – | – | 259 | CN1CCN(Cc2ccc3c(c2)-c2n[nH]c(-c4ccc(CN(C)C(=O)Nc5cccc(C(F)(F)F)c5)s4)c2C3)CC1 |
| 38 | 136 | – | – | – | Cc1cccc(NC(=O)N(Cc2ccc(-c3[nH]nc4c3Cc3cc(CN5CCN(C)CC5)ccc3-4)s2)C2CC2)c1 |
| 1350 | 237 | – | – | – | CON(Cc1ccc(-c2[nH]nc3c2Cc2cc(CN4CCN(C)CC4)ccc2-3)s1)C(=O)Nc1cccc(C)c1 |
| 592 | 69 | – | – | – | Cc1cccc(NC(=O)NCc2ccc(-c3n[nH]c4c3Cc3ccc(CN5CCN(C)CC5)cc3-4)s2)c1 |
| 36 | 28 | – | – | – | CN1CCN(Cc2ccc3c(c2)-c2n[nH]c(-c4ccc(CN(C)C(=O)Nc5ccc(Cl)c(Cl)c5)s4)c2C3)CC1 |
| 44 | 96 | – | – | – | Cc1cccc(NC(=O)N(C)Cc2ccc(-c3n[nH]c4c3Cc3ccc(CN5CCN(C)CC5)cc3-4)s2)c1 |
| 20 | 38 | – | – | – | CN1CCN(Cc2ccc3c(c2)-c2n[nH]c(-c4ccc(CN(C)C(=O)Nc5cccc(Cl)c5)s4)c2C3)CC1 |
| 33 | 25 | – | – | – | CN1CCN(Cc2ccc3c(c2)Cc2c-3n[nH]c2-c2ccc(CN(C)C(=O)Nc3cc(F)cc(C(F)(F)F)c3)s2)CC1 |
| 19 | 56 | – | – | – | CN1CCN(Cc2ccc3c(c2)Cc2c-3n[nH]c2-c2ccc(CN(C)C(=O)Nc3cccc(OC(F)(F)F)c3)s2)CC1 |
| 59 | 75 | – | – | – | CCCN(Cc1ccc(-c2[nH]nc3c2Cc2cc(CN4CCN(C)CC4)ccc2-3)s1)C(=O)Nc1cccc(C)c1 |
| 64 | 36 | – | – | – | CN1CCN(Cc2ccc3c(c2)-c2n[nH]c(-c4ccc(CN(C)C(=O)Nc5ccc(Cl)cc5)s4)c2C3)CC1 |
| 2280 | 38 | – | – | – | CN1CCN(Cc2ccc3c(c2)Cc2c(-c4ccc(CNC(=O)Nc5cc(Cl)cc(Cl)c5)s4)n[nH]c2-3)CC1 |
| 83 | 59 | – | – | – | CN1CCN(Cc2ccc3c(c2)-c2n[nH]c(-c4ccc(CN(C)C(=O)Nc5ccc(F)cc5)s4)c2C3)CC1 |
| 11500 | 24 | – | – | – | Cc1ccc(NC(=O)NCc2ccc(-c3[nH]nc4c3Cc3cc(CN5CCN(C)CC5)ccc3-4)s2)cc1 |
| 14600 | 139 | – | – | – | Cc1cccc(N(C)C(=O)NCc2ccc(-c3[nH]nc4c3Cc3cc(CN5CCN(C)CC5)ccc3-4)s2)c1 |
